Test results taken from patent publication US8962608B2, “Cycloalkylnitrile pyrazole carboxamides as janus kinase inhibitors” (Merck Sharp & Dohme Corp., priority 2011, dated 2015).
pIC50: −log10 of the molar value. Structures can show the parent of a compound that is named as a salt. Where two headings read alike, the source gives them in different places.

Key:
[1] = biological target: T1, JAK1 (recombinant purified GST-tagged catalytic domain) (Homo sapiens (Human), UniProt P23458);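 also: biochemical assay with HTRF read-out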
[2] = biological target: T2, JAK2 (recombinant purified GST-tagged catalytic domain) (Homo sapiens (Human), UniProt O60674);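 also: biochemical JAK kinase assay with HTRF detection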
[3] = biological target: T2, JAK2 (recombinant purified GST-tagged catalytic domain); assay: biochemical
[4] = biological target: T1, JAK1 (recombinant purified GST-tagged catalytic domain); assay: biochemical

T2 sequence (O60674 849-1124): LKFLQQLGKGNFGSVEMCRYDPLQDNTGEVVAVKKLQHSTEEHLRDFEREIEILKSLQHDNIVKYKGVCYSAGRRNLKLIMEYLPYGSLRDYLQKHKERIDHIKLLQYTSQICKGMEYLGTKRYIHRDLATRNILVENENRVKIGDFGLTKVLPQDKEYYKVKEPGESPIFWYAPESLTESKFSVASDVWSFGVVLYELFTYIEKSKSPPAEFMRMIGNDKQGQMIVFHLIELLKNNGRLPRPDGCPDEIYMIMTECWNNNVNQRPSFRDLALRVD
T1 sequence (P23458 875-1153): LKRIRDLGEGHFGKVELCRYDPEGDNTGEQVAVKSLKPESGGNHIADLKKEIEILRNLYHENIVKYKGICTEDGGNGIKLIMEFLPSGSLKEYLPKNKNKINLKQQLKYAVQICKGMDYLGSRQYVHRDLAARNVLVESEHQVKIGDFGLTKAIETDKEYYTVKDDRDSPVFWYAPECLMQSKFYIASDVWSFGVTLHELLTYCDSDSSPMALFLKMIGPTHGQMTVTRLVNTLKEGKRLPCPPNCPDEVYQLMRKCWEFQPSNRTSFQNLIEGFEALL

N#C[C@@H]1CCC[C@@H]1n1cc(C(N)=O)c(Nc2ccccc2)n1 (mixture of isomers) [Example 1-1, 1-{[(1S,2R) and (1R,2S)]-2-cyanocyclopentyl]}-3-(phenylamino)-1H-pyrazole-4-carboxamide]
pIC50 [1]: 7.02
pIC50 [2]: 6.16

N#C[C@H]1CCC[C@@H]1n1cc(C(N)=O)c(Nc2ccccc2)n1 (mixture of isomers) [Example 1-2, 1-{[(1S,2S) and (1R,2R)]-2-cyanocyclopentyl]}-3-(phenylamino)-1H-pyrazole-4-carboxamide]
pIC50 [1]: 8.10
pIC50 [2]: 7.00

CS(=O)(=O)c1ccc(Nc2nn([C@H]3CCC[C@@H]3C#N)cc2C(N)=O)cc1 (mixture of isomers) [Example 1-4, 1-{[(1S,2S) and (1R,2R)-2-cyanocyclopentyl]}-3-{4-(methylsulfonyl)phenyl]amino}-1H-pyrazole-4-carboxamide]
pIC50 [1]: 9.30
pIC50 [2]: 7.96

CS(=O)(=O)c1ccc(Nc2nn([C@H]3CCC[C@H]3C#N)cc2C(N)=O)cc1 (mixture of isomers) [Example 1-5, 1-{[(1S,2R) and (1R,2S)]-2-cyanocyclopentyl]}-3-{[4-(methylsulfonyl)phenyl]amino}-1H-pyrazole-4-carboxamide]
pIC50 [1]: 8.30
pIC50 [2]: 7.09

N#C[C@@H]1CCCC[C@@H]1n1cc(C(N)=O)c(Nc2ccc(CC(=O)O)cc2)n1 (mixture of isomers) [Example 3-1, [4-({4-carbamoyl-1-[(1S,2R and 1R,2S)-2-cyanocyclohexyl]-1H-pyrazol-3-yl}amino)phenyl]acetic acid]
pIC50 [2]: 6.96

CN(C)[C@H]1CC[C@H](n2cc(C(N)=O)c(Nc3ccc(S(=O)(=O)C(F)(F)F)cc3)n2)[C@@H](C#N)C1 (mixture of isomers) [Example 27-1, 1-[(1S,3S,4S and 1R,3R,4R)-4-[4-carbamoyl-3-({4-[(trifluoromethyl)sulfonyl]phenyl}amino)-1H-pyrazol-1-yl]-3-cyano-N,N-dimethylcyclohexanaminium trifluoroacetate]
pIC50 [1]: 9.70

CN(C)[C@@H]1CC[C@H](n2cc(C(N)=O)c(Nc3ccc(S(=O)(=O)C(F)(F)F)cc3)n2)[C@@H](C#N)C1 (mixture of isomers) [Example 27-2, 1-[(1R,3S,4S and 1S,3R,4R)-4-[4-carbamoyl-3-({4-[(trifluoromethyl)sulfonyl]phenyl}amino)-1H-pyrazol-1-yl]-3-cyano-N,N-dimethylcyclohexanaminium trifluoroacetate]
pIC50 [1]: 9.30

CC(O)(c1ccc(Nc2nn([C@H]3CCCC[C@@H]3C#N)cc2C(N)=O)cn1)C(F)F (single isomer, unassigned) [Example 17-40, 1-[(1S,2S or 1R,2R)-2-cyanocyclohexyl]-3-({6-[(1R or 1S)-2,2-difluoro-1-hydroxy-1-methylethyl]pyridin-3-yl}amino)-1H-pyrazole-4-carboxamide]
pIC50 [1]: 9.62

N#C[C@H]1C[C@H](O)CC[C@@H]1n1cc(C(N)=O)c(Nc2ccc(C(F)(F)F)cc2)n1 (single isomer, unassigned) [Example 25-24, 1-[(1S,2S,4R or 1R,2R,4S)-2-cyano-4-hydroxycyclohexyl]-3-{[4-(trifluoromethyl)phenyl]amino}-1H-pyrazole-4-carboxamide]
pIC50 [3]: 8.10
pIC50 [1]: 9.00

CC1(C)CN([C@H]2CC[C@H](n3cc(C(N)=O)c(Nc4ccnc(F)c4)n3)[C@@H](C#N)C2)C1 (single isomer, unassigned) [Example 28-134, 1-[(1S,2S,4S or 1R,2R,4R )-2-cyano-4-(3,3-dimethylazetidin-1-yl)cyclohexyl]-3-[(2-fluoropyridin-4-yl)amino]-1H-pyrazole-4-carboxamide]
pIC50 [1]: 9.00

CC1(N[C@H]2CCC(n3cc(C(N)=O)c(Nc4ccc(Cl)cc4)n3)[C@@H](C#N)C2)CC1 (single isomer, unassigned) [Example 28-205, 3-[(4-chlorophenyl)amino]-1-{(1S,2S,4S or 1R,2R,4R,)-2-cyano-4-[(1-methylcyclopropyl)amino]cyclo-hexyl}-1H-pyrazole-4-carboxamide]
pIC50 [1]: 9.05

COCC(C)N(C)[C@H]1CCC(n2cc(C(N)=O)c(Nc3ccc(Cl)cc3)n2)[C@@H](C#N)C1 (single isomer, unassigned) [Example 28-241, 3-[(4-chlorophenyl)amino]-1-[(1R,2S,4S1S,2S,4S or 1R,2R,4R)-2-cyano-4-{[(1S or 1R)-2-methoxy-1-methylethyl](methyl)ami-no}cyclohexyl]-1H-pyrazole-4-carboxamide]
pIC50 [3]: 7.55
pIC50 [1]: 8.70

CC(C)(C)NC(=O)[C@@H]1CC[C@@H](n2cc(C(N)=O)c(Nc3ccc(Cl)cc3)n2)[C@H](C#N)C1 (single isomer, unassigned) [Example 35-35, 1-[(1R,2R,4R or 1S,2S,4S)-4-(tert-butylcarbamoyl)-2-cyanocyclohexyl] 3-[(4-chlorophenyl)amino]-1H-pyrazole-4-carboxamide]
pIC50 [3]: 6.37
pIC50 [4]: 7.33

N#C[C@@H]1C[C@H](C(=O)N2CC3(COC3)C2)CC[C@H]1n1cc(C(N)=O)c(Nc2ccc(Cl)cc2)n1 (single isomer, unassigned) [Example 35-36, 3-[(4-chlorophenyl)amino]-1-[(1R,2R,4R or 1S,2S,4S)-2-cyano-4-(2-oxa-6-azaspiro[3.3]hept-6-ylcarbonyl)cyclohexyl]-1H-pyrazole-4-carboxamide]
pIC50 [3]: 6.95
pIC50 [4]: 8.00

N#C[C@H]1C[C@@H](C(=O)N2CC3(COC3)C2)CC[C@@H]1n1cc(C(N)=O)c(Nc2ccc(Cl)cc2)n1 (single isomer, unassigned) [Example 35-37, 3-[(4-chlorophenyl)amino]-1-[(1S,2S,4S or 1R,2R,4R)-2-cyano-4-(2-oxa-6-azaspiro[3.3]hept-6-ylcarbonyl)cyclohexyl]-1H-pyrazole-4-carboxamide]
pIC50 [3]: < 6.30
pIC50 [4]: 7.37

CC(C)(O)[C@H]1CC[C@H](n2cc(C(N)=O)c(Nc3ccc(Cl)cc3)n2)[C@@H](C#N)C1 (single isomer, unassigned) [Example 36-1, 3-(4-chlorophenylamino)-1-((1S,2S,4S or 1R,2R,4R)-2-cyano-4-(2-hydroxypropan-2-yl)cyclohexyl)-1H-pyrazole-4-carboxamide]
pIC50 [3]: 8.40
pIC50 [4]: 9.19

CC(C)(O)[C@H]1CC[C@H](n2cc(C(N)=O)c(Nc3ccc(Cl)cc3)n2)[C@@H](C#N)C1 (single isomer, unassigned) [Example 36-2, 3-(4-chlorophenylamino)-1-((1R,2R,4R or 1S,2S,4S)-2-cyano-4-(2-hydroxypropan-2-yl)cyclohexyl)-1H-pyrazole-4-carboxamide]
pIC50 [3]: 7.70
pIC50 [4]: 8.52

CO/N=C(\C)c1ccc(Nc2nn([C@H]3CCCC[C@@H]3C#N)cc2C(N)=O)cc1 (single isomer, unassigned) [Example 40, 1-[(1S,2S or 1R,2R)-2-Cyanocyclohexyl]-3-{[4-(N-methoxyethanimidoyl)phenyl]amino}-1H-pyrazole-4-carboxamide]
pIC50 [3]: 8.70
pIC50 [4]: 9.46

CS(=O)(=O)c1ccc(Nc2nn([C@H]3CCCC[C@@H]3C#N)cc2C(N)=O)cc1 (single isomer, unassigned) [Example 42-2, 1-[(1S,2S or 1R,2R)-2-cyanocyclohexyl]-3-{[4-(methylsulfonyl)phenyl]amino}-1H-pyrazole-4-carboxamide]
pIC50 [2]: 7.57

CS(=O)(=O)c1ccc(Nc2nn([C@H]3CCCC[C@H]3C#N)cc2C(N)=O)cc1 (single isomer, unassigned) [Example 42-3, 1-[(1S,2R or 1R,2S)-2-cyanocyclohexyl]-3-{[4-(methylsulfonyl)phenyl]amino}-1H-pyrazole-4-carboxamide]
pIC50 [2]: 7.07

CS(=O)(=O)c1ccc(Nc2nn([C@H]3CCCC[C@H]3C#N)cc2C(N)=O)cc1 (single isomer, unassigned) [Example 42-4, 1-[(1S,2R or 1R,2S)-2-cyanocyclohexyl]-3-{[4-(methylsulfonyl)phenyl]amino}-1H-pyrazole-4-carboxamide]
pIC50 [2]: 8.15

CS(=O)(=O)c1ccc(Nc2nn(C3CCCCC3C#N)cc2C(N)=O)cc1 (stereo not shown) [Example 2-15, 1-(2-cyanocyclohexyl)-3-{[4-(methylsulfonyl)phenyl]amino}-1H-pyrazole-4-carboxamide]
pIC50 [2]: 8.05

CC(C)(C)OC(=O)C1CCC(n2cc(C(N)=O)c(Nc3ccc(S(=O)(=O)C(F)(F)F)cc3)n2)C(C#N)C1 (stereo not shown) [Example 17-2, tert-butyl 4-[4-carbamoyl-3-({4-[(trifluoromethyl)sulfonyl]phenyl}amino)-1H-pyrazol-1-yl]-3-cyanocyclohexanecarboxylate]
pIC50 [1]: 7.64

Cc1cncc(Nc2nn([C@H]3CCCC[C@@H]3C#N)cc2C(N)=O)c1 [Example 17-73, 1-[(1S,2S)-2-cyanocyclohexyl]-3-[(5-methylpyridin-3-yl)amino]-1H-pyrazole-4-carboxamide]
pIC50 [1]: 7.80

C[N+]1([C@H]2CC[C@H](n3cc(C(N)=O)c(Nc4ccc(Cl)cc4)n3)[C@@H](C#N)C2)CCC1 [Example 31-2, 1-[(1S,3S,4S)-4-{4-carbamoyl-3-[(4-chlorophenyl)amino]-1H-pyrazol-1-yl}-3-cyanocyclohexyl]-1-methylazetidinium]
pIC50 [1]: 9.00

N#C[C@H]1C[C@@H]([N+]2(CC3CC3)CCC2)CC[C@@H]1n1cc(C(N)=O)c(Nc2ccc(Cl)cc2)n1 [Example 31-5, 1-[(1S,3S,4S)-4-{4-carbamoyl-3-[(4-chlorophenyl)amino]-1H-pyrazol-1-yl}-3-cyanocyclohexyl]-1-(cyclopropylmethyl)azetidinium]
pIC50 [1]: 9.07

CC(=O)O[C@H]1C[C@H](C#N)[C@@H](n2cc(C(N)=O)c(Nc3ccc(C(F)(F)F)cc3)n2)C[C@@H]1O [Example 41]
pIC50 [3]: 6.74
pIC50 [4]: 7.70
